From patent US8426345B2, “Method of drug design” (Alchemia Limited, priority 2005, dated 2013)

Target: T1, Human SST5 somatostatin receptor (Homo sapiens, UniProt P35346)
T1 construct: expressed in transfected cells; host or cells: HEK-293 EBNA cells (membranes)
Assay: Filter plate radio-ligand binding assay for SST5 receptor ([125I]SST-14 displacement)
Settings: for % SST5 radio-ligand binding displaced at conc 0.25: conc 0.25 μM; for % SST5 radio-ligand binding displaced at conc 1.0: conc 1.0 μM

[1] = compound conc 50 μM, 2P library
[2] = compound conc 250 μM, 2P library
[3] = compound conc 500 μM, 2P library

T1 sequence (P35346 whole entry): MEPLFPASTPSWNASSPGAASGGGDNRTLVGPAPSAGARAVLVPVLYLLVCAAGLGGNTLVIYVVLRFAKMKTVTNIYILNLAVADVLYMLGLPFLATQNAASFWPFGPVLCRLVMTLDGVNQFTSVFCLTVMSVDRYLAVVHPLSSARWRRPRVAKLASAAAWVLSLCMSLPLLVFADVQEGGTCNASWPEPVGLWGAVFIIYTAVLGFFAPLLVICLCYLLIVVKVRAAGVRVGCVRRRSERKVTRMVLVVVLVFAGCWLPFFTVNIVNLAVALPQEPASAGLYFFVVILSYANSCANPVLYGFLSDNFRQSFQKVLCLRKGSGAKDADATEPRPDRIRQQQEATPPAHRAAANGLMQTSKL

Compound: COC[C@H]1O[C@H](OCc2ccc3ccccc3c2)[C@H](NC(=O)CCN)[C@@H](OCc2cccc3cccnc23)[C@@H]1O [Compound 110]
- % SST5 radio-ligand binding displaced at conc 0.25 (3P library): ++ (% SST5 radio-ligand binding displaced at conc (μM) >60%)
- % SST5 radio-ligand binding displaced at conc 1.0 (3P library): ++ (% SST5 radio-ligand binding displaced at conc (μM) >60%)

Compound: COC[C@H]1O[C@H](OCc2ccc3ccccc3c2)[C@H](NC(=O)CCN2CCCCC2)[C@@H](OCc2ccc3ccccc3c2)[C@@H]1O [Compound 102]
- % SST5 radio-ligand binding displaced at conc 0.25 (3P library): − (% SST5 radio-ligand binding displaced at cone (μM) −<40%)
- % SST5 radio-ligand binding displaced at conc 1.0 (3P library): − (% SST5 radio-ligand binding displaced at cone (μM) −<40%)

Compound: COC[C@H]1O[C@H](OCc2ccc3ccccc3c2)[C@H](NC(=O)CCN)[C@@H](OC)[C@@H]1O [Compound 60]
- % SST5 radio-ligand binding displaced at conc 50 (conc 50 μM, 3P library): − (% SST5 radio-ligand binding displaced at cone (μM) −<40%)
- % SST5 radio-ligand binding displaced at conc 250 (conc 250 μM, 3P library): + (% SST5 radio-ligand binding displaced at cone (μM) 60>+>40%)
- % SST5 radio-ligand binding displaced at conc 500 (conc 500 μM, 3P library): ++ (% SST5 radio-ligand binding displaced at conc (μM) >60%)

Compound: NCCC(=O)NC1C(OCc2ccc3ccccc3c2)OC(COCc2ccc(Cl)cc2)C(O)C1OCc1ccc(Cl)cc1 (mixture of isomers) [Compound 72]
- % SST5 radio-ligand binding displaced at conc 0.25 (3P library): − (% SST5 radio-ligand binding displaced at cone (μM) −<40%)
- % SST5 radio-ligand binding displaced at conc 1.0 (3P library): ++ (% SST5 radio-ligand binding displaced at conc (μM) >60%)

Compound: COCC1OC(OCc2ccc(Cl)cc2)C(NC(=O)CN)C(OCc2ccc3ccccc3c2)C1O (mixture of isomers) [Compound 175]
- % SST5 radio-ligand binding displaced at conc 0.25 (3P library): − (% SST5 radio-ligand binding displaced at cone (μM) −<40%)
- % SST5 radio-ligand binding displaced at conc 1.0 (3P library): − (% SST5 radio-ligand binding displaced at cone (μM) −<40%)

Compound: COC[C@H]1O[C@H](OCc2ccc3ccccc3c2)[C@H](NC(=O)CCC(C)N)[C@@H](OCc2ccc3ccccc3c2)[C@@H]1O (some centres unmarked) [Compound 140]
- % SST5 radio-ligand binding displaced at conc 0.25 (3P library): ++ (% SST5 radio-ligand binding displaced at conc (μM) >60%)
- % SST5 radio-ligand binding displaced at conc 1.0 (3P library): ++ (% SST5 radio-ligand binding displaced at conc (μM) >60%)

Compound: COC[C@H]1O[C@H](OCc2ccc3ccccc3c2)[C@H](NC(=O)CCN)[C@@H](OCc2ccc(Oc3ccccc3)cc2)[C@@H]1O [Compound 118]
- % SST5 radio-ligand binding displaced at conc 0.25 (3P library): ++ (% SST5 radio-ligand binding displaced at conc (μM) >60%)
- % SST5 radio-ligand binding displaced at conc 1.0 (3P library): ++ (% SST5 radio-ligand binding displaced at conc (μM) >60%)

Compound: COC[C@H]1OC(OCc2ccc3ccccc3c2)[C@H](NC(=O)CCN)[C@@H](OCc2ccccc2)[C@@H]1O (single isomer, unassigned) [Compound 87]
- % SST5 radio-ligand binding displaced at conc 0.25 (3P library): − (% SST5 radio-ligand binding displaced at cone (μM) −<40%)
- % SST5 radio-ligand binding displaced at conc 1.0 (3P library): − (% SST5 radio-ligand binding displaced at cone (μM) −<40%)

Compound: COC[C@H]1O[C@H](OCc2ccc3ccccc3c2)[C@H](NC(=O)CCCN(C)C)[C@@H](OCc2ccc3ccccc3c2)[C@@H]1O [Compound 141]
- % SST5 radio-ligand binding displaced at conc 0.25 (3P library): − (% SST5 radio-ligand binding displaced at cone (μM) −<40%)
- % SST5 radio-ligand binding displaced at conc 1.0 (3P library): − (% SST5 radio-ligand binding displaced at cone (μM) −<40%)

Compound: COC[C@H]1O[C@H](OCc2ccc(Cl)cc2)[C@H](NC(=O)CCN)[C@H](OC)[C@@H]1O [Compound 38]
- % SST5 radio-ligand binding displaced at conc 50 [1]: − (% SST5 radio-ligand binding displaced at cone (μM) −<40%)
- % SST5 radio-ligand binding displaced at conc 250 [2]: + (% SST5 radio-ligand binding displaced at cone (μM) 60>+>40%)
- % SST5 radio-ligand binding displaced at conc 500 [3]: ++ (% SST5 radio-ligand binding displaced at conc (μM) >60%)

Compound: COC[C@H]1OC(OCc2ccc(Cl)cc2)[C@H](NC(=O)CN)[C@@H](OCc2ccccc2)[C@@H]1O (single isomer, unassigned) [Compound 168]
- % SST5 radio-ligand binding displaced at conc 0.25 (3P library): − (% SST5 radio-ligand binding displaced at cone (μM) −<40%)
- % SST5 radio-ligand binding displaced at conc 1.0 (3P library): − (% SST5 radio-ligand binding displaced at cone (μM) −<40%)

Compound: CO[C@H]1[C@H](O)[C@@H](COCc2ccc(Cl)cc2)O[C@@H](SC)[C@@H]1NC(=O)CN [Compound 7]
- % SST5 radio-ligand binding displaced at conc 50 [1]: − (% SST5 radio-ligand binding displaced at cone (μM) −<40%)
- % SST5 radio-ligand binding displaced at conc 250 [2]: − (% SST5 radio-ligand binding displaced at cone (μM) −<40%)
- % SST5 radio-ligand binding displaced at conc 500 [3]: − (% SST5 radio-ligand binding displaced at cone (μM) −<40%)

Compound: NCCC(=O)NC1C(OCc2ccc3ccccc3c2)OC(COCc2ccc(Cl)cc2)C(O)C1OCc1ccc2ccccc2c1 (centres unmarked) [Compound 84]
- % SST5 radio-ligand binding displaced at conc 0.25 (3P library): − (% SST5 radio-ligand binding displaced at cone (μM) −<40%)
- % SST5 radio-ligand binding displaced at conc 1.0 (3P library): ++ (% SST5 radio-ligand binding displaced at conc (μM) >60%)

Compound: COC[C@H]1O[C@@H](SC)[C@H](NC(=O)CCCN)[C@H](OCc2ccc(Cl)cc2)[C@@H]1O [Compound 43]
- % SST5 radio-ligand binding displaced at conc 50 [1]: − (% SST5 radio-ligand binding displaced at cone (μM) −<40%)
- % SST5 radio-ligand binding displaced at conc 250 [2]: − (% SST5 radio-ligand binding displaced at cone (μM) −<40%)
- % SST5 radio-ligand binding displaced at conc 500 [3]: − (% SST5 radio-ligand binding displaced at cone (μM) −<40%)

Compound: COC[C@H]1O[C@@H](SC)[C@H](NC(=O)CCN)[C@@H](OCc2ccc3ccccc3c2)[C@@H]1O [Compound 18]
- % SST5 radio-ligand binding displaced at conc 50 [1]: − (% SST5 radio-ligand binding displaced at cone (μM) −<40%)
- % SST5 radio-ligand binding displaced at conc 250 [2]: − (% SST5 radio-ligand binding displaced at cone (μM) −<40%)
- % SST5 radio-ligand binding displaced at conc 500 [3]: − (% SST5 radio-ligand binding displaced at cone (μM) −<40%)

Compound: COCC1OC(OCc2ccc3ccccc3c2)C(NC(=O)CCN)C(OCc2ccc(Cl)cc2)C1O (mixture of isomers) [Compound 66]
- % SST5 radio-ligand binding displaced at conc 0.001 (conc 0.001 μM, 3P library): − (% SST5 radio-ligand binding displaced at cone (μM) −<40%)
- % SST5 radio-ligand binding displaced at conc 0.10 (conc 0.10 μM, 3P library): − (% SST5 radio-ligand binding displaced at cone (μM) −<40%)
- % SST5 radio-ligand binding displaced at conc 0.5 (conc 0.5 μM, 3P library): ++ (% SST5 radio-ligand binding displaced at conc (μM) >60%)
- % SST5 radio-ligand binding displaced at conc 1.0 (3P library): ++ (% SST5 radio-ligand binding displaced at conc (μM) >60%)
- % SST5 radio-ligand binding displaced at conc 10 (conc 10 μM, 3P library): ++ (% SST5 radio-ligand binding displaced at conc (μM) >60%)

Compound: COC[C@H]1O[C@H](OCc2ccc3ccccc3c2)[C@H](NC(=O)CCN)[C@@H](OCc2cccc(Cl)c2)[C@@H]1O [Compound 107]
- % SST5 radio-ligand binding displaced at conc 0.25 (3P library): ++ (% SST5 radio-ligand binding displaced at conc (μM) >60%)
- % SST5 radio-ligand binding displaced at conc 1.0 (3P library): ++ (% SST5 radio-ligand binding displaced at conc (μM) >60%)

Compound: COC1C(O)C(COCc2ccc3ccccc3c2)OC(OCc2ccc3ccccc3c2)C1NC(=O)CCN (mixture of isomers) [Compound 97]
- % SST5 radio-ligand binding displaced at conc 0.25 (3P library): − (% SST5 radio-ligand binding displaced at cone (μM) −<40%)
- % SST5 radio-ligand binding displaced at conc 1.0 (3P library): + (% SST5 radio-ligand binding displaced at cone (μM) 60>+>40%)
